The values below come from ChEMBL document CHEMBL2163222 (J Med Chem, 2012).

In series [1] the test system is OE33. Description: Growth inhibition of human OE33 cells after 3 days by MTT assay. It is filed as functional, cell-based. The settings on record: OE33, 72 h.
Series [2] concerns the target Dual specificity tyrosine-phosphorylation-regulated kinase 1A (Homo sapiens, UniProt Q13627). Description: Inhibition of DYRK1A kinase using RBER-CHKtide substrate by radiometric protein kinase assay.
A short description of series [3]: Cytostatic activity in human U373 cells at 24 uM assessed global growth ratio after 72 hrs by quantitative video microscopy. Format: functional, U-373MG ATCC.
Series [4] deals with Hs 683. Description: cells. The following applies: Homo sapiens, Hs 683, 72 h.
Series [5] can be described thus: cells. The following applies: Homo sapiens, U373 MG, 72 h.
A short description of series [6]: Growth inhibition of human OE21 cells after 3 days by MTT assay. Format: functional, cell-based. The settings on record: OE21, 72 h.
The test system of series [7] is T98G. Description: cells. The following applies: Homo sapiens, 72 h.
A short description of series [8]: Cytostatic activity in human U373 cells at 64 uM assessed global growth ratio after 72 hrs by quantitative video microscopy. It is filed as functional, U-373MG ATCC.
The nature of series [9]: Solubility of compound at pH 7.4. Format: physicochemical. The settings on record: buffer.
Series [10] can be described thus: Cytostatic activity in human U373 cells at 18 uM assessed global growth ratio after 72 hrs by quantitative video microscopy. Format: functional, U-373MG ATCC.
Series [11] in a line: Cytostatic activity in human U373 cells at 31 uM assessed global growth ratio after 72 hrs by quantitative video microscopy. Format: functional, U-373MG ATCC.
The subject of series [12] is U-373MG ATCC. Description: Inhibition of eIF2 activity in human U373 cells at 1 uM after 4 hrs by Western blotting method. Format: functional, cell-based.
Series [13] in a line: Inhibition of eIF2 protein expression in human Hs683 cells at 5 uM after 4 hrs by Western blotting method. It is filed as functional, cell-based. The settings on record: Hs 683.
For series [14], the target named is Tyrosine-protein kinase CSK (Homo sapiens) (UniProt P41240). Description: Inhibition of CSK assessed as residual enzyme activity at 10 uM by radiometric protein kinase assay.
The nature of series [15]: Cytostatic activity in human U373 cells at 0.9 uM assessed global growth ratio after 72 hrs by quantitative video microscopy. It is filed as functional, U-373MG ATCC.
In series [16] the target is Tyrosine-protein kinase Fer (Homo sapiens) (UniProt P16591). Description: Inhibition of FER assessed as residual enzyme activity at 10 uM by radiometric protein kinase assay.
For series [17], the target named is Myosin light chain kinase, smooth muscle (Homo sapiens) (UniProt Q15746). Description: Inhibition of MYLK assessed as residual enzyme activity at 10 uM by radiometric protein kinase assay.
Chain of Myosin light chain kinase, smooth muscle (Homo sapiens) (Q15746 whole entry): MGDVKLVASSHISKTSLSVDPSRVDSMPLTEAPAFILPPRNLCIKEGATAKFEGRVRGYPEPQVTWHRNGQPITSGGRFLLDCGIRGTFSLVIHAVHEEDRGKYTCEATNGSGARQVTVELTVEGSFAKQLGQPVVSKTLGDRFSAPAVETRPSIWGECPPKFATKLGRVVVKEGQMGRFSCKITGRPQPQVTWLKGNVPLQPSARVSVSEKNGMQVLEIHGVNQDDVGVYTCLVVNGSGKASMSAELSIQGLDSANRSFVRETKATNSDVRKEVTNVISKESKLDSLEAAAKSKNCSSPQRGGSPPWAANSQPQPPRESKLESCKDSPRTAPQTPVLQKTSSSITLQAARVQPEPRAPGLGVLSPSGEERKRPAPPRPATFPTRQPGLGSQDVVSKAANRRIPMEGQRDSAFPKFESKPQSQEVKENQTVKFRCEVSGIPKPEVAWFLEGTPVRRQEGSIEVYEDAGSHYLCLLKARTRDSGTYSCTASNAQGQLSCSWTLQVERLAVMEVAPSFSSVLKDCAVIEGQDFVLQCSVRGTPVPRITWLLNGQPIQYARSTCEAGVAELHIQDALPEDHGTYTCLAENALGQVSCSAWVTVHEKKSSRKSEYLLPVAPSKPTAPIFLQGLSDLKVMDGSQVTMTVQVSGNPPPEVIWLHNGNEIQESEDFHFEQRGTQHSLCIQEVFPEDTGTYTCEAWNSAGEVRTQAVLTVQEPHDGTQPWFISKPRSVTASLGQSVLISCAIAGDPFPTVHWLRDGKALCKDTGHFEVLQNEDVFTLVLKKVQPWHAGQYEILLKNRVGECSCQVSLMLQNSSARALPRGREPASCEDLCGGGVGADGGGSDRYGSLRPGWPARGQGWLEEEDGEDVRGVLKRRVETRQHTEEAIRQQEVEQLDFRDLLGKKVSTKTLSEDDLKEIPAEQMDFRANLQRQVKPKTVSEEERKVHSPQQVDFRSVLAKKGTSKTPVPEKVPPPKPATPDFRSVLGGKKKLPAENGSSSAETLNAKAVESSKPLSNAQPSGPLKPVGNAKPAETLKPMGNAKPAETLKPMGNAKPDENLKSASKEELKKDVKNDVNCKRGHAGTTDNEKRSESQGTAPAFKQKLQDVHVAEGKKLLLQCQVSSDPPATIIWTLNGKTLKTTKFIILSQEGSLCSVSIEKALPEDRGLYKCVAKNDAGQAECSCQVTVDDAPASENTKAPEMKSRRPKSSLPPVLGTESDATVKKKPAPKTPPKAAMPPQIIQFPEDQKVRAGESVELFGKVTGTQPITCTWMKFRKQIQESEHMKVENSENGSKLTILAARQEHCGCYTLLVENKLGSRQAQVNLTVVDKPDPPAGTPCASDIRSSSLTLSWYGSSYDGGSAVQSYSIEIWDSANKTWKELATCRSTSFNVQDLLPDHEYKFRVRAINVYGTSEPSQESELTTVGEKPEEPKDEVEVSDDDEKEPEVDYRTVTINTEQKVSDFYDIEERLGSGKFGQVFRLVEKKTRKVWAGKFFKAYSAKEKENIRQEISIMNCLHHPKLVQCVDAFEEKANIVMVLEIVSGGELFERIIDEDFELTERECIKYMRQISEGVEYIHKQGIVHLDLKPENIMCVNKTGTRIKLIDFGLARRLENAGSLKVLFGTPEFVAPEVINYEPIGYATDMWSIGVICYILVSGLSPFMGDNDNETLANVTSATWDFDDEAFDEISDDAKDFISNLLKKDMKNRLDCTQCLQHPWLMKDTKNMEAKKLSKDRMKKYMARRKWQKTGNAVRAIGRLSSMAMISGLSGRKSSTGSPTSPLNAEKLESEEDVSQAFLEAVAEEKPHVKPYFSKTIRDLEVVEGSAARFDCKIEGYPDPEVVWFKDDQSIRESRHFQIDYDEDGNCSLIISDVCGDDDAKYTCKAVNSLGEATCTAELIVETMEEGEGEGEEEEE
Series [18] addresses Calcium/calmodulin-dependent protein kinase type II subunit alpha (Homo sapiens) (UniProt Q9UQM7). Description: Inhibition of CAMK2A assessed as residual enzyme activity at 10 uM by radiometric protein kinase assay.
For series [19], the species on record is Mus musculus. Description: Toxicity in mouse assessed as drug tolerance. It is filed as organism-based. The settings on record: in vivo.
Series [20] deals with Hs 683. Description: Inhibition of eIF2 activity in human Hs683 cells at 5 uM after 4 hrs by Western blotting method. It is filed as functional, cell-based.
A short description of series [21]: Inhibition of eIF2 protein expression in human U373 cells at 1 uM after 4 hrs by Western blotting method. It is filed as functional, cell-based. The following applies: U-373MG ATCC.
In series [22] the target is MAP kinase-interacting serine/threonine-protein kinase 1 (Homo sapiens) (UniProt Q9BUB5). Description: Inhibition of MKNK1 assessed as residual enzyme activity at 10 uM by radiometric protein kinase assay.
Series [23] has as its target TGF-beta receptor type-2 (Homo sapiens) (UniProt P37173). Description: Inhibition of TGFB-R2 assessed as residual enzyme activity at 10 uM by radiometric protein kinase assay.
Series [24] has as its target Myosin light chain kinase 2, skeletal/cardiac muscle (Homo sapiens) (UniProt Q9H1R3). Description: Inhibition of MYLK2 assessed as residual enzyme activity at 10 uM by radiometric protein kinase assay.
The target of series [25] is Serine/threonine-protein kinase 17A (Homo sapiens) (UniProt Q9UEE5). Description: Inhibition of STK17A assessed as residual enzyme activity at 10 uM by radiometric protein kinase assay.
Chain of Serine/threonine-protein kinase 17A (Homo sapiens) (Q9UEE5 whole entry): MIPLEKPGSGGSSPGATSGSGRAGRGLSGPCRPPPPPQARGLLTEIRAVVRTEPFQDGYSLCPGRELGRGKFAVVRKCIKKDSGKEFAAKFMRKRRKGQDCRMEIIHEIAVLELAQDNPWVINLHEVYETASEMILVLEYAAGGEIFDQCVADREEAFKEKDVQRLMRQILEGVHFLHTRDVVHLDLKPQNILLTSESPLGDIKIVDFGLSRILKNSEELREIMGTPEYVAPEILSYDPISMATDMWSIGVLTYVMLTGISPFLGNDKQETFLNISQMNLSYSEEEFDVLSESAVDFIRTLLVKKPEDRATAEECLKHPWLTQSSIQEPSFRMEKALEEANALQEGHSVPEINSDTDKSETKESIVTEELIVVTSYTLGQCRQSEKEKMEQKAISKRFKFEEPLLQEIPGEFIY
The target in series [26] is Calcium/calmodulin-dependent protein kinase type II subunit delta (Homo sapiens) (UniProt Q13557). Description: Inhibition of CAMK2D assessed as residual enzyme activity at 10 uM by radiometric protein kinase assay.
Chain of Calcium/calmodulin-dependent protein kinase type II subunit delta (Homo sapiens) (Q13557 whole entry): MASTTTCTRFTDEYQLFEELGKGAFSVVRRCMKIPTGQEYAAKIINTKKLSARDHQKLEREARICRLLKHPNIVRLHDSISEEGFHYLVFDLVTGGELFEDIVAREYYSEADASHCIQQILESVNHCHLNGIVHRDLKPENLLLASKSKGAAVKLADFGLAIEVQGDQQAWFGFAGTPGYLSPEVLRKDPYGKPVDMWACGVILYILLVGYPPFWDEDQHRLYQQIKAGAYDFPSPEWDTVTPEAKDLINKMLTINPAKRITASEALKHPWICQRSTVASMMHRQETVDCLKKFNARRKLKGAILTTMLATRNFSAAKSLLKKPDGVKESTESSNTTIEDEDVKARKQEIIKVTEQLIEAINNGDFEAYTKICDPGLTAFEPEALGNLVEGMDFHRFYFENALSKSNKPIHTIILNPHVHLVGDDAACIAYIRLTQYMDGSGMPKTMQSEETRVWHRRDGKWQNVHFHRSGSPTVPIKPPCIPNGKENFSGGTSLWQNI
Series [27] addresses TGF-beta receptor type-1 (Homo sapiens) (UniProt P36897). Description: Inhibition of TGFB-R1 assessed as residual enzyme activity at 10 uM by radiometric protein kinase assay.
Series [28] has as its target Tyrosine-protein kinase Tec (Homo sapiens) (UniProt P42680). Description: Inhibition of TEC assessed as residual enzyme activity at 10 uM by radiometric protein kinase assay.

Activity calls are given as the source filed them. The rule behind the calls is not given here.

Chain of Calcium/calmodulin-dependent protein kinase type II subunit alpha (Homo sapiens) (Q9UQM7 whole entry): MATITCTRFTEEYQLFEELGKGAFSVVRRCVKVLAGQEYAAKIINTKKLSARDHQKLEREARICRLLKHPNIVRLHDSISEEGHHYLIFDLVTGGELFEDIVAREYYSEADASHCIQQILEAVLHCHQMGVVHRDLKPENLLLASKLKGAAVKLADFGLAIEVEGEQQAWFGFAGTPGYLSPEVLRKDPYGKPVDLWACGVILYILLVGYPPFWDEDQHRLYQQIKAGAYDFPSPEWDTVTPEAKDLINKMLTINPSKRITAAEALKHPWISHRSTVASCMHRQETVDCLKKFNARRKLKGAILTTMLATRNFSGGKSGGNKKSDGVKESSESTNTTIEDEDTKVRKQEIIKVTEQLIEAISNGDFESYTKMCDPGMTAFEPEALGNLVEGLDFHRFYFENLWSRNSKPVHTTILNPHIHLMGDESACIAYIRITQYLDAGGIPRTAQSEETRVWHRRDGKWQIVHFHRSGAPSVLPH
Chain of TGF-beta receptor type-2 (Homo sapiens) (P37173 whole entry): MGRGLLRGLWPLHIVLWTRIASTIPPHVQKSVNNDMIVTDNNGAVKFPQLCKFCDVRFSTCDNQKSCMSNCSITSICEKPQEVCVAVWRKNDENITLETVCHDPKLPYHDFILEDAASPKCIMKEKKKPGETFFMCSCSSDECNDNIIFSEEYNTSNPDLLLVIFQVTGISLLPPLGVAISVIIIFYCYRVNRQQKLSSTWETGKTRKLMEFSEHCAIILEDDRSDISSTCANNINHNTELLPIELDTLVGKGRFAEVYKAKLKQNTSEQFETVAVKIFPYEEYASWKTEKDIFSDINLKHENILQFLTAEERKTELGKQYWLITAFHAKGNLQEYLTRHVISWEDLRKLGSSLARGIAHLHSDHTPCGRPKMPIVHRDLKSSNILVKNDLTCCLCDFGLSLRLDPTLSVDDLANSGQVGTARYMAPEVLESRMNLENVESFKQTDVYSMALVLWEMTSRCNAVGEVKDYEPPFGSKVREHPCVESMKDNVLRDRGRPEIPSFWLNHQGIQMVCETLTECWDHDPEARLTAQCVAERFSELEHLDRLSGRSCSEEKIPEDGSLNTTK
Chain of Myosin light chain kinase 2, skeletal/cardiac muscle (Homo sapiens) (Q9H1R3 whole entry): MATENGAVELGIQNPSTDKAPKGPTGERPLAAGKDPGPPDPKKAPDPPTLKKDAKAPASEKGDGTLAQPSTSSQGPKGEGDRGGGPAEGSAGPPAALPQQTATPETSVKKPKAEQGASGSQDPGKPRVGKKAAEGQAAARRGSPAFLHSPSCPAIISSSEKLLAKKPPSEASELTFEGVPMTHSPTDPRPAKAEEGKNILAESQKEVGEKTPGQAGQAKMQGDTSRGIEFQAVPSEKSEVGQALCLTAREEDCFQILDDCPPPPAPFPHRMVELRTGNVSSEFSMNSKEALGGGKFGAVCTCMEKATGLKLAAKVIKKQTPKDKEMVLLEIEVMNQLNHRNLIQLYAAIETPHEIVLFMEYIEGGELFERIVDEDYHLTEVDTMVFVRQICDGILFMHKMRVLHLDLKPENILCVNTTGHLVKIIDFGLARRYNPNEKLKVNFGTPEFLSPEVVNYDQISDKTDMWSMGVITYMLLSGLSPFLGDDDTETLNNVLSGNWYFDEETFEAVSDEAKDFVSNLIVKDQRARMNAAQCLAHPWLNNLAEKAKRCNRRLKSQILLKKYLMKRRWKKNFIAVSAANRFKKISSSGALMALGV
Chain of TGF-beta receptor type-1 (Homo sapiens) (P36897 whole entry): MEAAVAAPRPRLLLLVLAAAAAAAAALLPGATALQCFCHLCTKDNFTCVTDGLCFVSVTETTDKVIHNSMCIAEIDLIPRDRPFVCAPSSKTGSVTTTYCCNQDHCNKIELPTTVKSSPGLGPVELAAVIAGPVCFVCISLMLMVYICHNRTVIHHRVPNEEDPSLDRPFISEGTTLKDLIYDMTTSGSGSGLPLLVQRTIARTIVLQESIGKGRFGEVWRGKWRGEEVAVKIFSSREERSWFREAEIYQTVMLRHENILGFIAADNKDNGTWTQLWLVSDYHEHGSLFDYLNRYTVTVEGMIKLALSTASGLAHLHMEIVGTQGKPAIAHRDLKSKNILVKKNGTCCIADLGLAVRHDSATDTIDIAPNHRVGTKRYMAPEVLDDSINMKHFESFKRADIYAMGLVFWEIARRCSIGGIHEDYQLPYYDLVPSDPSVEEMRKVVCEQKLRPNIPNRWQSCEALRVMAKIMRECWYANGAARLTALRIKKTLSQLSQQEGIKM

Regarding `Cc1nccc2c1[nH]c1cc(OCc3cccnc3)ccc12`, the IC50 was found to be 31 µM in series [1]; 10 µM in [2]; 30 µM in [4]; 24 µM in series [5]; 28 µM in [6]; 29 µM in series [7]. Moreover, the Ratio in series [3] stood at 0.29.
As for `COCCOc1ccc2c(c1)[nH]c1c(C)nccc12`, the IC50 in series [1] was 66 µM; in series [2], 16 µM; in [4], 53 µM; in [5], 64 µM; in series [6], 53 µM; in [7], 61 µM. For the same compound, the Ratio in series [8] is 0.23.
In the case of `Cc1nccc2c3ccc(OCc4ccccc4)cc3n(Cc3ccccc3)c12`, the solubility in series [9] (read-out: solubility) is below 3 µM. For the same compound, the IC50 turned out to be 40 µM in series [1]; 33 µM in series [4]; 18 µM in series [5]; 28 µM in [6]; 36 µM in series [7]. In series [10], the Ratio is on record as 0.3.
`Cc1nccc2c3ccc(OCC4CCCCC4)cc3n(CC3CCCCC3)c12`: the IC50 was 15 µM in [1]; above 10 µM in series [2]; 30 µM in series [4]; 31 µM in series [5]; 17 µM in [6]; 32 µM in series [7]. Besides, the Ratio in series [11] is 0.17.
For `Cc1c2c(cc[n+]1Cc1ccc(F)cc1)c1ccc(OCc3cccc(F)c3)cc1n2Cc1cccc(F)c1.[Br-]`, the inhibition result in series [12], in series [13], in [20] and in series [21] was “Active” throughout. The compound also displayed a solubility in series [9] of 53 µM. Also, the Activity in [14] is 10%; in [16], 7%; in series [17], 2%; in [18] it was 1%; in series [19], “Non-toxic”; in series [22] it was 10%. Besides, the Activity is 6% in series [23]; 7% in [24]; below 1% in series [25]; 2% in series [26]; 6% in series [27]; 8% in series [28]. Besides, the 50% inhibitory concentration (IC50) in series [1] worked out at 3.4 µM; in series [4] it was 4.5 µM; in series [5], 0.9 µM; in series [6], 2.9 µM; in [7], 1.9 µM. For the same compound, the Ratio in [15] is on record as 0.53.
`Cc1c2c(cc[n+]1Cc1ccc(F)cc1)c1ccc(OCc3ccc(F)cc3)cc1n2Cc1ccc(F)cc1`: the half-maximal inhibitory concentration (IC50) came out at 3.1 µM in series [1]; 13 µM in series [4]; 2.9 µM in [5]; 3.7 µM in series [6]; 14 µM in series [7].
